Test results from ChEMBL document CHEMBL1125749, “trans-3-n-propyl-L-proline is a highly favorable, conformationally restricted replacement for methionine in the C-terminal tetrapeptide of cholecystokinin. Stereoselective synthesis of 3-allyl- and 3-n-propyl-L-proline derivatives from 4-hydroxy-L-proline” (J Med Chem, 1991).
Square brackets hold non-standard residues; d marks the D form. Peptide text beside a SMILES is read from it. * marks the point of attachment. Nle = CCCC[C@H](N)C(=O)O; Boc = CC(C)(C)OC(=O)*

What follows are molecules tested against T1, Cholecystokinin receptor type A (Cavia porcellus, UniProt Q63931) (assay: Compound was tested for its inhibitory activity in pancreatic cholecystokinin type A receptor in guinea pig).
T1 sequence (Q63931 whole entry): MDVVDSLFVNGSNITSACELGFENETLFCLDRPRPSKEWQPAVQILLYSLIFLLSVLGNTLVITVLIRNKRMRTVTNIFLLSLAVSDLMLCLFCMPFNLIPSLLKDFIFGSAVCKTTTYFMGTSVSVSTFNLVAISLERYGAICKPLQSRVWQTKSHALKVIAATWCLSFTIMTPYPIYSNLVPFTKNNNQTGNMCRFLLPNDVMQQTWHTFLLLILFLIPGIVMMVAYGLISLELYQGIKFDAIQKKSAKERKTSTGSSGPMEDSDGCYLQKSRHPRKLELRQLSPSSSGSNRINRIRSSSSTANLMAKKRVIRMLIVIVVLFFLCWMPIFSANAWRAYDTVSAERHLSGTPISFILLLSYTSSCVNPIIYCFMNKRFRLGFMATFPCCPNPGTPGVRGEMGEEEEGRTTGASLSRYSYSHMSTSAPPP

`CCC[C@@H]1CCN(C(=O)[C@H](Cc2c[nH]c3ccccc23)NC(=O)OC(C)(C)C)[C@@H]1C(=O)N[C@@H](CC(=O)O)C(=O)N[C@@H](Cc1ccccc1)C(N)=O` and `CC(C)(C)OC(=O)N[C@@H](Cc1c[nH]c2ccccc12)C(=O)N1CCC[C@H]1C(=O)N[C@@H](CC(=O)O)C(=O)N[C@@H](Cc1ccccc1)C(N)=O` (Boc-WPDF-NH2) are within 1.5-fold of each other in IC50: 2.7 µM for the first, 2.1 µM for the second.

Compared with `C[C@H](NC(=O)[C@H](Cc1c[nH]c2ccccc12)NC(=O)OC(C)(C)C)C(=O)N[C@@H](CC(=O)O)C(=O)N[C@@H](Cc1ccccc1)C(N)=O` (Boc-WADF-NH2), `CCCC[C@H](NC(=O)[C@H](Cc1c[nH]c2ccccc12)NC(=O)OC(C)(C)C)C(=O)N[C@@H](CC(=O)O)C(=O)N[C@@H](Cc1ccccc1)C(N)=O` (Boc-W[Nle]DF-NH2) is 2.6-fold lower in IC50: 10.3 µM for the first, 4 µM for the second.
